Measurements from US9617244B2, “Antibacterial quinoline derivatives” (JANSSEN PHARMACEUTICA NV, priority 2012, dated 2017).
In brackets after ≈: the same amount, converted by molar mass.

Tested on: Mycobacterium smegmatis (ATCC607)
Assay: In-vitro anti-bacterial activity against strain M. Smegmatis ATCC607
Assay type: cell-based
Conditions: 90% inhibitory concentration for bacterial growth, 48 hours, Alamar Blue fluorescence
Protocol: D.1. In-Vitro Method for Testing Compounds for Anti-Bacterial Activity Against Strain M. Smegmatis ATCC607
Flat-bottom, sterile 96-well plastic microtiter plates were filled with 180 μl of sterile deionized water, supplemented with 0.25% BSA. Subsequently, stock solutions (7.8× final test concentration) of compounds were added in 45 μl volumes to a series of duplicate wells in column 2 so as to allow evaluation of their effects on bacterial growth. Serial five-fold dilutions (45 μl in 180 μl) were made directly in the microtiter plates from column 2 to 11 using a customised robot system (Zymark Corp., Hopkinton, Mass.). Pipette tips were changed after every 3 dilutions to minimize pipetting errors with high hydrophobic compounds. Untreated control samples with (column 1) and without (column 12) inoculum were included in each microtiter plate. Approximately 250 CFU per well of bacteria inoculum, in a volume of 100 μl in 2.8× Mueller-Hinton broth medium, was added to the rows A to H, except column 12. The same volume of broth medium without inoculum was added to column 12 in row A to H. The cultures were incubated at 37° C. for 48 hours in a humidified 5% CO2 atmosphere (incubator with open air valve and continuous ventilation). At the end of incubation, two days after inoculation, the bacterial growth was quantitated fluorometrically. Therefore Alamar Blue (10×) was added to all wells in a volume of 20 μl and plates were incubated for another 2 hours at […]
The fluorescence was read in a computer-controlled fluorometer (Cytofluor, Biosearch) at an excitation wavelength of 530 nm and an emission wavelength of 590 nm (gain 30). The percentage growth inhibition achieved by the compounds was calculated according to standard methods and expressed as IC90 (μg/ml) which defines the 90% inhibitory concentration for bacterial growth.

| Structure (SMILES) | IC90 MSM 607 |
| --- | --- |
| COc1nc2ccc(Cl)cc2cc1C(c1ccc(Cl)cc1)C1(O)CCNC(c2ccc(F)cc2C)C1 (single isomer, unassigned) [Compound 1] | 1.66 µg/mL (≈ 3.16 µM) |
| COc1nc2ccc(Cl)cc2cc1C(c1ccc(Cl)cc1)C1(O)CCNC(c2ccc(F)cc2C)C1 (single isomer, unassigned) [Compound 4] | 2.09 µg/mL (≈ 3.98 µM) |
| CS(=O)(=O)c1ccc2[nH]c(=O)c(C(c3ccc(Cl)cc3)C3(O)CCN[C@@H](Cc4ccc(F)c(F)c4)C3)cc2c1 (stereo in doubt) [Compound 205] | >15.22 µg/mL |
| CS(=O)(=O)c1ccc2[nH]c(=O)c(C(c3ccc(Cl)cc3)C3(O)CCN[C@@H](Cc4ccc(F)c(F)c4)C3)cc2c1 (stereo in doubt) [Compound 206] | >15.08 µg/mL |
| CS(=O)(=O)c1ccc2[nH]c(=O)c(C(c3ccc(Cl)cc3)C3(O)CCN[C@@H](Cc4ccc(F)c(F)c4)C3)cc2c1 (stereo in doubt) [Compound 207] | 3.83 µg/mL (≈ 6.68 µM) |
| CS(=O)(=O)c1ccc2[nH]c(=O)c(C(c3ccc(Cl)cc3)C3(O)CCN[C@@H](Cc4ccc(F)c(F)c4)C3)cc2c1 (stereo in doubt) [Compound 208] | 9.57 µg/mL (≈ 16.7 µM) |
| O=c1[nH]c2ccc(Cl)cc2cc1C(c1ccc(Cl)cc1)C1(O)CCNC(Cc2ccccc2)C1 (stereo not shown) [Compound 5] | 1.67 µg/mL (≈ 3.38 µM) |
| O=c1[nH]c2ccc(Br)cc2cc1C(c1ccc(Cl)cc1)C1(O)CCNC(CC2CCCCC2)C1 (stereo not shown) [Compound 6] | 9.18 µg/mL (≈ 16.9 µM) |
| Cc1cc(F)ccc1C1CC(O)(C(c2ccc(Cl)cc2)c2cc3cc(Br)ccc3[nH]c2=O)CCN1 (stereo not shown) [Compound 7] | 0.94 µg/mL (≈ 1.69 µM) |
| COc1nc2ccc(F)cc2cc1C(c1ccc(Cl)cc1)C1(O)CCN(C(C)c2ccccc2)C(CO)C1 (stereo not shown) [Compound 14] | 3.79 µg/mL (≈ 7.08 µM) |
| COc1nc2ccc(Cl)cc2cc1C(c1ccc(Cl)cc1)C1(O)CCNC(c2cccnc2)C1 (stereo not shown) [Compound 28] | 3.12 µg/mL (≈ 6.31 µM) |
| COc1nc2ccc(Br)cc2cc1C(c1ccc(Cl)cc1)C1(O)CCNC(Cc2ccccc2)C1 (stereo not shown) [Compound 32] | 1.56 µg/mL (≈ 2.83 µM) |
| Cc1cc(F)ccc1C1CC(O)(C(c2cccc(Cl)c2)c2cc3cc(S(C)(=O)=O)ccc3[nH]c2=O)CCN1 (stereo not shown) [Compound 42] | 2.60 µg/mL (≈ 4.68 µM) |
| Cc1cc(F)ccc1C1CC(O)(C(c2ccccc2)c2cc3cc(Br)ccc3[nH]c2=O)CCN1 (stereo not shown) [Compound 43] | 3.48 µg/mL (≈ 6.67 µM) |
| COc1nc2ccc(Br)cc2cc1C(c1ccc(Cl)cc1)C1(O)CCNCC1Cc1cccc(F)c1 (stereo not shown) [Compound 48] | 0.72 µg/mL (≈ 1.26 µM) |
| O=c1[nH]c2ccc(Br)cc2cc1C(c1ccc(Cl)cc1)C1(O)CCNCC1Cc1cccc(F)c1 (stereo not shown) [Compound 49] | 1.79 µg/mL (≈ 3.22 µM) |
| COc1nc2ccc(Br)cc2cc1C(c1ccc(Cl)cc1)C1(O)CCNC(Cc2ccc(F)cc2F)C1 (stereo not shown) [Compound 51] | 1.17 µg/mL (≈ 1.99 µM) |
| COc1nc2ccc(F)cc2cc1C(c1ccc(Cl)cc1)C1(O)CCNC(Cc2ccccc2)C1 (stereo not shown) [Compound 54] | 1.77 µg/mL (≈ 3.6 µM) |
| COc1nc2ccc(F)cc2cc1C(c1ccc(Cl)cc1)C1(O)CCNC(Cc2ccccc2)C1 (stereo not shown) [Compound 55] | 3.90 µg/mL (≈ 7.94 µM) |
| CS(=O)(=O)c1ccc2[nH]c(=O)c(C(c3ccc(Cl)cc3)C3(O)CCNC(Cc4ccc(F)cc4)C3)cc2c1 (stereo not shown) [Compound 57] | 3.50 µg/mL (≈ 6.31 µM) |

Tested on: Staphylococcus aureus (ATCC29213)
Assay: In-vitro anti-bacterial activity, microtitre plate assay, IC90 determination (non-mycobacterial strains)
Assay type: cell-based
Conditions: 90% inhibitory concentration for bacterial growth, 24 hours, resazurin fluorescence
Protocol: D.2. In-Vitro Method for Testing Compounds for Anti-Bacterial Activity Against Various Non-Mycobacterial Strains
Preparation of Bacterial Suspensions for Susceptibility Testing:
The bacteria used in this study were grown overnight in flasks containing 100 ml Mueller-Hinton Broth (Becton Dickinson—cat. no. 275730) in sterile de-ionized water, with shaking, at 37° C. Stocks (0.5 ml/tube) were stored at −70° C. until use. Bacteria titrations were performed in microtiter plates to detect the TCID50, in which TCID50 represents the dilution that gives rise to bacterial growth in 50% of inoculated cultures. In general, an inoculum level of approximately 100 TCID50 was used for susceptibility testing.
Anti Bacterial Susceptibility Testing: IC90 Determination
Flat-bottom, sterile 96-well plastic microtiter plates were filled with 180 μl of sterile deionized water, supplemented with 0.25% BSA. Subsequently, stock solutions (7.8× final test concentration) of compounds were added in 45 μl volumes in column 2 Serial five-fold dilutions (45 μl in 180 μl) were made directly in the microtiter plates from column 2 to reach column 11. Untreated control samples with (column 1) and without (column 12) inoculum were included in each microtiter plate. Depending on the bacteria type, approximately 10 to 60 CFU per well of bacteria inoculum (100 TCID50), in a volume of 100 μl in 2.8× Mueller-Hinton broth medium, was added to the rows A to H, except column 12. The same volume of broth medium without inoculum was added to column 12 in row A to H. The cultures were incubated at 37° C. for 24 hours under a normal atmosphere (incubator with open air valve and continuous ventilation). At the end of incubation, one day after inoculation, the bacterial growth was quantitated fluorometrically. Therefore resazurin (0.6 mg/ml) was added in a volume of 20 μl to all wells 3 hours after inoculation, and the plates were re-incubated overnight. A change in colour from blue to pink indicated the growth of bacteria. The fluorescence was read in a computer-controlled fluorometer (Cytofluor Biosearch) at an excitation wavelength of 530 nm and an emission wavelength of 590 nm. The % growth inhibition achieved by the compounds was calculated according to standard methods. The IC90 (expressed in μg/ml) was defined as the 90% inhibitory concentration for bacterial growth.

| Structure (SMILES) | IC90 STA B29213 |
| --- | --- |
| COc1nc2ccc(Cl)cc2cc1C(c1ccc(Cl)cc1)C1(O)CCNC(c2ccc(F)cc2C)C1 (single isomer, unassigned) [Compound 1] | 3.32 µg/mL (≈ 6.32 µM) |
| COc1nc2ccc(Cl)cc2cc1C(c1ccc(Cl)cc1)C1(O)CCNC(c2ccc(F)cc2C)C1 (single isomer, unassigned) [Compound 4] | 2.63 µg/mL (≈ 5.01 µM) |
| CS(=O)(=O)c1ccc2[nH]c(=O)c(C(c3ccc(Cl)cc3)C3(O)CCN[C@@H](Cc4ccc(F)c(F)c4)C3)cc2c1 (stereo in doubt) [Compound 205] | >15.22 µg/mL |
| CS(=O)(=O)c1ccc2[nH]c(=O)c(C(c3ccc(Cl)cc3)C3(O)CCN[C@@H](Cc4ccc(F)c(F)c4)C3)cc2c1 (stereo in doubt) [Compound 206] | >15.08 µg/mL |
| CS(=O)(=O)c1ccc2[nH]c(=O)c(C(c3ccc(Cl)cc3)C3(O)CCN[C@@H](Cc4ccc(F)c(F)c4)C3)cc2c1 (stereo in doubt) [Compound 207] | 3.83 µg/mL (≈ 6.68 µM) |
| CS(=O)(=O)c1ccc2[nH]c(=O)c(C(c3ccc(Cl)cc3)C3(O)CCN[C@@H](Cc4ccc(F)c(F)c4)C3)cc2c1 (stereo in doubt) [Compound 208] | 7.60 µg/mL (≈ 13.3 µM) |
| O=c1[nH]c2ccc(Cl)cc2cc1C(c1ccc(Cl)cc1)C1(O)CCNC(Cc2ccccc2)C1 (stereo not shown) [Compound 5] | 1.67 µg/mL (≈ 3.38 µM) |
| O=c1[nH]c2ccc(Br)cc2cc1C(c1ccc(Cl)cc1)C1(O)CCNC(CC2CCCCC2)C1 (stereo not shown) [Compound 6] | 1.83 µg/mL (≈ 3.36 µM) |
| Cc1cc(F)ccc1C1CC(O)(C(c2ccc(Cl)cc2)c2cc3cc(Br)ccc3[nH]c2=O)CCN1 (stereo not shown) [Compound 7] | 1.49 µg/mL (≈ 2.68 µM) |
| COc1nc2ccc(F)cc2cc1C(c1ccc(Cl)cc1)C1(O)CCN(C(C)c2ccccc2)C(CO)C1 (stereo not shown) [Compound 14] | 6.74 µg/mL (≈ 12.6 µM) |
| COc1nc2ccc(Cl)cc2cc1C(c1ccc(Cl)cc1)C1(O)CCNC(c2cccnc2)C1 (stereo not shown) [Compound 28] | 6.22 µg/mL (≈ 12.6 µM) |
| COc1nc2ccc(Br)cc2cc1C(c1ccc(Cl)cc1)C1(O)CCNC(Cc2ccccc2)C1 (stereo not shown) [Compound 32] | 3.48 µg/mL (≈ 6.31 µM) |
| Cc1cc(F)ccc1C1CC(O)(C(c2cccc(Cl)c2)c2cc3cc(S(C)(=O)=O)ccc3[nH]c2=O)CCN1 (stereo not shown) [Compound 42] | 7.34 µg/mL (≈ 13.2 µM) |
| Cc1cc(F)ccc1C1CC(O)(C(c2ccccc2)c2cc3cc(Br)ccc3[nH]c2=O)CCN1 (stereo not shown) [Compound 43] | 3.48 µg/mL (≈ 6.67 µM) |
| COc1nc2ccc(Br)cc2cc1C(c1ccc(Cl)cc1)C1(O)CCNCC1Cc1cccc(F)c1 (stereo not shown) [Compound 48] | 0.90 µg/mL (≈ 1.58 µM) |
| COc1nc2ccc(Br)cc2cc1C(c1ccc(Cl)cc1)C1(O)CCNC(Cc2ccc(F)cc2F)C1 (stereo not shown) [Compound 51] | 2.34 µg/mL (≈ 3.98 µM) |
| COc1nc2ccc(F)cc2cc1C(c1ccc(Cl)cc1)C1(O)CCNC(Cc2ccccc2)C1 (stereo not shown) [Compound 54] | 3.54 µg/mL (≈ 7.21 µM) |
| COc1nc2ccc(F)cc2cc1C(c1ccc(Cl)cc1)C1(O)CCNC(Cc2ccccc2)C1 (stereo not shown) [Compound 55] | 6.19 µg/mL (≈ 12.6 µM) |
| CS(=O)(=O)c1ccc2[nH]c(=O)c(C(c3ccc(Cl)cc3)C3(O)CCNC(Cc4ccc(F)cc4)C3)cc2c1 (stereo not shown) [Compound 57] | 3.50 µg/mL (≈ 6.31 µM) |

Same assay, conditions: Staphylococcus aureus, ATCC29213, 24 h, 90% inhibitory concentration for bacterial growth, resazurin fluorescence, read-out: IC90 STA B29213

| Structure (SMILES) | IC90 |
| --- | --- |
| O=c1[nH]c2ccc(Br)cc2cc1C(c1ccc(Cl)cc1)C1(O)CCNCC1Cc1cccc(F)c1 (stereo not shown) [Compound 49] | 2.25 µg/mL (≈ 4.05 µM) |
